From patent US20150231069A1, “ORAL FORMULATIONS OF CHEMOTHERAPEUTIC AGENTS” (priority 2014, published 2015)
Like-named read-outs stand apart in the source and are kept apart here.

Assays:
[1] = female, C57BL6, mouse, in vivo
Protocol: One set of experiments was performed in 21 female C57BL6 mice, 8 weeks of age. They were housed and handled according to institutional guidelines. Food and water were given ad libitum. All of the animal experiments were performed in full compliance with a protocol approved by the University Animal Use Committee.
For the oral treatment with paclitaxel (with or without delivery system), 10 mg per gram body weight of inventive formulation was administered by gavage under light diethyl ether anesthesia. Blood samples were collected at, 0, 15 min, 30 min, 1 h, 2 h, 4 h, 8 h, 12 h, and 16 h after drug administration of the oral formulation.
An i.v. formulation of paclitaxel 40 mg/kg was injected into a tail vein under light diethyl ether anesthesia at a dosage of 10 mg per gram body weight. Blood samples were collected at 0, 15 min, 30 min, 1 h, 2 h, 4 h, 8 h, 12 h, and 16 h after IV administration of paclitaxel.
Blood samples were analyzed with a pre-calibrated, validated HPLC method using HPLC Equipment. […] The solvent eluent was monitored using a Varian UV-Visible spectro-photometric detector set at 227 nm. […]
Paclitaxel quantitation was based on standard curves of the peak area and ratios of known amounts of paclitaxel to the internal standard peak from a paclitaxel internal standard. […]

[2] = Human clinical bioavailability study, oral versus i.v. paclitaxel; format: in vivo
Protocol: An open label, two-treatment, single dose, two-period, cross-over, […] Paclitaxel BMS formulation (175 mg) in 11 patients (male or female) suffering from solid tumors, cancers and malignancies refractory to standard therapy were treated under fasting condition.
In this part of the study, the oral course and IV course were randomized. […]
The IV formulation of paclitaxel ([…]; Rhône-Poulenc Rorer/Aventis, Antony, France) was used for both IV and oral administration of the agent. One hour before oral paclitaxel administration, patients received 1 mg of oral granisetron and oral CsA capsules (500 mg). Patients who completed the first course of oral paclitaxel were eligible to receive IV paclitaxel.
Pharmacokinetic monitoring was performed during course i.v. and oral paclitaxel administration. For plasma paclitaxel and metabolite concentrations, blood samples of 5 mL each were collected in heparinized tubes. After oral administration, blood samples were obtained before dosing, at time 0 min and then 15, 30, 45, 60, 75, 90 minutes, and 2, 3, 4, 7, 10, 24, 30, and 48 h after paclitaxel ingestion. […] After centrifugation, the plasma was transferred to a polypropylene storage tube and stored at −20° C. until analyzed. Paclitaxel and metabolite concentrations in plasma were determined using a validated high-performance liquid chromatography (HPLC) assay.

[3] = system: MCF-7 cells; test: Cytotoxicity against MCF-7 cell growth; format: cell-based, human
Protocol: The cellular uptake of non-targeted and folic acid (FA)-targeted tumor has affinity for folic acid (breast, tumor, ovarian tumors) microbeads as prepared above was evaluated in human breast carcinoma cell, MCF-7. The microbeads are made specifically to be retained by the tumor sites and tumors have affinity toward the drug and conjugate. To investigate the effect of time on the FA-targeted microbead uptake by FR-bearing cells, […]. MCF-7 cells were incubated with free rhodamine B (free R-B), plain micellar rhodamine B (DOMC/R-B) and FA-micellar rhodamine B (DOMC-FA/R-B) for various periods and visualized using fluorescence microscopy. The cytotoxicity of paclitaxel (PTX) in plain micelles (DOMC/PTX) and FA-micellar PTX (DOMC-FA/PTX) was investigated and compared with that of the free PTX and taxol injection using MCF-7 cells. […] In order to elucidate PTX-loaded micelles induced-apoptosis in MCF-7 cells, Hoechst staining of nuclei was observed after different treatments.

[4] = female, FVB wild-type, mouse, in vivo

CC(=O)O[C@H]1C(=O)[C@@]2(C)[C@H]([C@H](OC(=O)c3ccccc3)[C@]3(O)C[C@H](OC(=O)[C@H](O)[C@@H](NC(=O)c4ccccc4)c4ccccc4)C(C)=C1C3(C)C)[C@]1(OC(C)=O)CO[C@@H]1C[C@@H]2O [paclitaxel]
oral bioavailability (ratio of AUC after oral and after IV, dose corrected) [1]: 6%±1.6 | AUC ([2]; both sexes, plasma, 75 mg/m2, oral 75 mg/m^2, without delivery system, read-out: mean AUC of orally administered paclitaxel): 420 ± 140 ng·h/mL | oral bioavailability (ratio of AUC after oral and after i.v., dose corrected) ([2]; without delivery system): 4.3%±1.8 | growth of MCF-7 cells [3]: inhibited the growth of MCF-7 cells | oral bioavailability (ratio of AUC after oral and after i.v., dose corrected) [4]: 6%±1.6
